Values of other authors in US10934504B2, “Laundry treatment compositions comprising perfume and silica microparticles” (Conopco, Inc., priority 2016, dated 2021).

Settings: values taken from the Good Scents website

Row | logKow | SMILES
1 | 5.7 | CCCCCCOC(=O)c1ccccc1O [n-Hexyl salicylate]
2 | 4.9 | CCCCCCCCCC(C)C=O (stereo not drawn) [C12 Aldehyde MNA]
3 | 2.9 | CC(=O)/C=C/C1=C(C)CCCC1(C)C [β-Ionone]
4 | 2.0 | CC(=O)OCc1ccccc1 [Benzyl acetate]
5 | 2.7 | CC(=O)OC(C)(C)Cc1ccccc1 [Dimethyl benzyl carbinyl acetate]
6 | 2.2 | CC(=O)OC1CC2CC1C1CC=CC21 (stereo not drawn) [Verdyl acetate]
7 | 2.4 | CCCC(C)C(=O)OCC (stereo not drawn) [Manzanate]
8 | 3.4 | C=C(C)[C@H]1CC=C(C)CC1 [Limonene]
9 | 3.6 | CC(C=O)Cc1ccc(C(C)(C)C)cc1 (stereo not drawn) [Lilial]
10 | 2.9 | C=CC(C)CCCC(C)(C)O (stereo not drawn) [Dihydromyrcenol]
11 | 3.8 | c1ccc(CCOC2CCCCC2)cc1 [Phenafleur]

Row | SMILES | logKow
12 | CC(=O)c1cc2c(cc1C)C(C)(C)C(C)CC2(C)C (stereo not drawn) [Tonalid] | 4.8
